Measured values published in patent US8178506B2, “Oligomeric compounds and compositions for use in modulation of small non-coding RNAs” (Regulus Therapeutics Inc., priority 2003, dated 2012).
Where “and” joins values, the source holds several entries; their conditions need not be identical. Identical values can stand only once. In the oligonucleotide strings, read from the 5' end, every base follows the letter of its sugar. An asterisk marks phosphorothioate; unmarked linkages are phosphodiester. Other units and linkages are bracketed, terminal groups are in braces. A string of capitals states the bases alone. e = 2'-O-(2-methoxyethyl) (MOE); [5mC] = 5-methylcytosine; d = 2'-deoxy (DNA)

Test system: HeLa cells
Assay: Cell cycle assay in HeLa cells
Assay type: cell-based, human
Conditions: for % cells in cell cycle phase: G2/M / % cells in cell cycle phase: G1 / % cells in cell cycle phase: S / % cells in cell cycle phase: aneuploid / % cells in cell cycle phase: subG1 / % cells aneuploid / % cells in cell cycle phase G1 / % cells in cell cycle phase G2/M / % cells in cell cycle phase S / % cells in cell cycle phase subG1 / % cells in cell cycle phase aneuploid: HeLa cells
[1] = 25 nM, 48 hours, percentage of cells in phase, average of replicates
[2] = 50 nM, 48 hours, percentage of cells in phase, average of replicates
[3] = 100 nM, 48 hours, percentage of cells in phase, average of replicates
[4] = 150 nM oligomeric compound, 24 hours, relative to untreated control (UTC = 100)
[5] = 150 nM oligomeric compound, 48 hours after treatment, relative to untreated control (UTC=100)
[6] = 150 nM, 48 hours, relative to untreated control
[7] = 150 nM, 48 hours, percentage of cells in phase, average of replicates

## 327905 (antisense e[5mC]*eA*eG*eA*e[5mC]*eT*e[5mC]*e[5mC]*eG*eG*eT*eG*eG*eA*eA*eT*eG*eA*eA*eG*eG*eA) [compound 327905]
25 nM, 48 hours
  % cells in cell cycle phase: G2/M: 18%
[1]
  % cells in cell cycle phase: G1: 57%
  % cells in cell cycle phase: S: 24%
  % cells in cell cycle phase: aneuploid: 12%
  % cells in cell cycle phase: subG1: 1.7%
50 nM, 48 hours
  % cells in cell cycle phase: G2/M: 20%
[2]
  % cells in cell cycle phase: G1: 50%
  % cells in cell cycle phase: S: 30%
  % cells in cell cycle phase: aneuploid: 12%
  % cells in cell cycle phase: subG1: 2.1%
100 nM, 48 hours
  % cells in cell cycle phase: G2/M: 24%
[3]
  % cells in cell cycle phase: G1: 46%
  % cells in cell cycle phase: S: 30%
  % cells in cell cycle phase: aneuploid: 14%
  % cells in cell cycle phase: subG1: 2.5%
[4]
  % cells aneuploid: 50% and 98%
  % cells in cell cycle phase G1: 99% and 94%
  % cells in cell cycle phase G2/M: 129% and 121%
  % cells in cell cycle phase S: 88% and 95%
  % cells in cell cycle phase subG1: 144% and 149%
[5]
  % cells in cell cycle phase: G1: 48% and 78%
  % cells in cell cycle phase: G2/M: 150% and 122%
  % cells in cell cycle phase: S: 194% and 143%
  % cells in cell cycle phase: aneuploid: 67% and 99%
150 nM, 48 hours
  % cells in cell cycle phase: G2/M: 24%
[6]
  % cells in cell cycle phase G1: 108%
  % cells in cell cycle phase G2/M: 90%
  % cells in cell cycle phase S: 99%
  % cells in cell cycle phase aneuploid: 164%
  % cells in cell cycle phase subG1: 55%
[7]
  % cells in cell cycle phase: G1: 38%
  % cells in cell cycle phase: S: 38%
  % cells in cell cycle phase: aneuploid: 12%
  % cells in cell cycle phase: subG1: 4.5%

## 327919 (antisense eG*eA*eA*eA*e[5mC]*e[5mC]*e[5mC]*eA*eG*e[5mC]*eA*eG*eA*e[5mC]*eA*eA*eT*eG*eT*eA*eG*e[5mC]*eT) [compound 327919]
[4]
  % cells aneuploid: 96%
  % cells in cell cycle phase G1: 92%
  % cells in cell cycle phase G2/M: 109%
  % cells in cell cycle phase S: 103%
  % cells in cell cycle phase subG1: 85%
[5]
  % cells in cell cycle phase: G1: 80%
  % cells in cell cycle phase: G2/M: 139%
  % cells in cell cycle phase: S: 122%
  % cells in cell cycle phase: aneuploid: 104%
  % cells in cell cycle phase: subG1: 104%

## 327956 (antisense e[5mC]*eA*e[5mC]*eA*eG*eT*eT*eG*e[5mC]*e[5mC]*eA*eG*e[5mC]*eT*eG*eA*eG*eA*eT*eT*eA) [compound 327956]
[4]
  % cells aneuploid: 61%
  % cells in cell cycle phase G1: 124%
  % cells in cell cycle phase G2/M: 120%
  % cells in cell cycle phase S: 68%
  % cells in cell cycle phase subG1: 120%
[5]
  % cells in cell cycle phase: G1: 91%
  % cells in cell cycle phase: G2/M: 121%
  % cells in cell cycle phase: S: 106%
  % cells in cell cycle phase: aneuploid: 110%
  % cells in cell cycle phase: subG1: 184%

## ACTTTCGGTTATCTAGCTTTA [ISIS 327892] (chemistry not given here) [uniform 2′-MOE PS; targets mir-131-2/mir-9]
HeLa, 150 nM, 48 hours
  phase of the cell cycle in which cells arrest or delay: G2/M- and S-phases

## 328382 (e[5mC]*eA*eG*eA*e[5mC]*dT*d[5mC]*d[5mC]*d[5mC]*dA*dA*d[5mC]*dT*dG*dA*e[5mC]*e[5mC]*eA*eG*eA) [compound 328382]
[4]
  % cells in cell cycle phase G1: 118% and 102%
  % cells in cell cycle phase G2/M: 116% and 144%
  % cells in cell cycle phase S: 76% and 80%
[5]
  % cells in cell cycle phase: G1: 102% and 83%
  % cells in cell cycle phase: G2/M: 103% and 120%
  % cells in cell cycle phase: S: 92% and 122%
  % cells in cell cycle phase: aneuploid: 109% and 133%

## 340350 (antisense TGCTCAATAAATACCCGTTGAA; all 2'-MOE, all phosphorothioate, methylation of C not given here) [compound 340350]
[4]
  % cells aneuploid: 94%
  % cells in cell cycle phase G1: 183%
  % cells in cell cycle phase G2/M: 104%
  % cells in cell cycle phase S: 54%
  % cells in cell cycle phase subG1: 218%
[5]
  % cells in cell cycle phase: G1: 76%
  % cells in cell cycle phase: G2/M: 134%
  % cells in cell cycle phase: S: 126%
  % cells in cell cycle phase: aneuploid: 125%
  % cells in cell cycle phase: subG1: 1144%
[6]
  % cells in cell cycle phase G1: 101%
  % cells in cell cycle phase G2/M: 112%
  % cells in cell cycle phase S: 94%
  % cells in cell cycle phase aneuploid: 177%
  % cells in cell cycle phase subG1: 132%
